The source of these data is patent publication US20100279409A1, “METHOD FOR MODIFYING CELLUAR IMMUNE RESONSE BY MODULATING ACTIVIN ACTIVITY” (priority 2007, published 2010).

The subject of one series is Human NK cells. Put plainly: IFN-γ ELISA of purified NK cells. Type of series: cell-based. Particulars: for IFN-γ production: NK cells. The procedure: A total of 1×10^5 highly purified human NK cells were cultured for 20 hours in medium supplemented with 20 U/ml IL-2, and 10 ng/ml IL-12. Either human recombinant activin-A, or TGF-β was added to the cultures, at concentrations of 10, 50 and 100 ng/ml. Supernatants were then tested for IFN-γ via ELISA, using standard methods. In these experiments 1×10^5 highly purified human NK cells were cultured as above, but were cultured with Poly I:C (10 μg/ml), or LPS (100 ng/ml), with or without 10, 50, or 100 ng/ml of recombinant human activin-A. In some cases, the known compound “SB431542,” which blocks activin-A binding to receptors was added. IFN-γ was then measured via ELISA, or by intracellular cytokine staining after 16 hours of culture, via addition of 1 μg/ml BFA, to prevent cytokine release. The impact of activin-A on production of IFN-γ by NK cells, in the absence of dendritic cells, was ascertained. Purified NK cells (1×10^5) were cultured in 96 well-plants, in media that was supplemented with 20 U/ml IL-2 and 10 ng/ml, IL-12, in the absence of, or with increasing concentrations of either activin-A, or TGF-β. Culture supernatants were assayed for IFN-γ after 24 hours of culture, using ELISAs, as described supra. As in the prior experiments, 1×10^5 purified NK cells were cultured in media supplemented with IL-2 only, or IL-2 plus IL-12, either with or without one of poly I:C or LPS, in the presence or absence of increased levels of activin-A.
(In general: ELISA stands for enzyme-linked immunosorbent assay.)

The subject of another series is Human MoDCs. In words: Activin-A secretion by stimulated MoDCs. In kind it is cell-based. Particulars: MoDCs in GM-CSF and IL-4, 2-72 hours. How it is done:
Human MoDCs were co-cultured, in a medium containing both GM-CSF and IL-4, with one of (i) intact E. coli, (ii) CD40L, (iii) a TLR ligand (LPS, R848, Poly I:C, or Pam3Cys, which bind, respectively, to TLR4, 7/8, 3, and 2/6), or (iv) one of the inflammatory mediators PGE2 or ATP. Culture was carried out for from 2-72 hours. Supernatants were collected, and assayed for activin-A, using standard methods.

The test system of a further series is MoDCs. Put plainly: qRT-PCR kinetics of activin receptor mRNA in stimulated MoDCs. Type of series: cell-based, human. The procedure: In follow up experiments, the kinetics of gene expression described in Example 1 were studied, by stimulating MoDCs with either of trimeric CD40L or LPS, via quantitative real time PCR, or “qRT-PCR,” using standard methods and primers specific for activin βA and the activin receptor molecules ALK-2, and ALK-4. The primers differed from those used in the RT-PCR work, described supra. Stimulus was accomplished with 2 μg/ml of CD40L trimer, or 100 ng/ml of E. coli derived LPS for anywhere from 2-24 hours. As a control, MoDCs were cultured in GM-CSF plus IL-4 for the same length of time.

Series [1] relates to NK cells (target cells K562 or Jurkat cells). Put plainly: NK cell killing of calcein-labeled target cells. Type of series: cell-based, human. The note with it: 100 ng/ml, 3 days culture, K562 or Jurkat targets, 4 hours. How it is done: 1×10^6 purified NK cells were cultured in 24 well-plates, either with a high dose of IL-2 (100 U/ml), or a combination of 20 U/ml of IL-2 and IL-12. The culturing took place in the absence of either of activin-A or TGF-β or 100 ng/ml of one of them. The culture continued for 3 days.
After the 3 days of culture, the NK cells were combined with target cells K562 or Jurkat cells, at effector (NK cells): target (K562 or Jurkat cells) ratios of 5:1, 2:1, and 0.1:1. The target cells had been labeled with calcein previously. The total number of labeled target cells was 2×10^4, and the mixture was incubated for 4 hours. The efficiency of killing was determined by measuring calcein dye release via spectrometry.

For series [2], the system named is NK cells. In words: NKp30 expression on NK cells by flow cytometry. Type of series: cell-based, human. Particulars: NK cells after 3 day culture, 100 ng/ml. The procedure:
In order to investigate the mechanism behind these differences, the same NK cells were purified and cryopreserved immediately after the 3 day culture period. The cells were thawed, washed, and stained for NCR. NKp30, with expression levels determined via flow cytometry. The level of expression was also determined using “ex vivo” samples, and NK cells that were cultured, without exposure to targets.

The subject of series [3] is NK cells. In words: NK cell viability by caspase and PI staining. Type of series: cell-based, human. Particulars: 24 hours. The procedure:
With respect to testing viability, 1×10^5 purified NK cells were cultured as described supra, in 96 well-plates. After 24 hours of culture, cells were stained with antibodies to polycaspase, caspase 3/7, caspase 8 and PI.

On to Poly I:C [reference compound], for which, in the series on Human NK cells (added to stimulated NK cultures), the “IFN-γ production induced by stimulus” value is given as “enhanced IFN-γ production”. The activin-A secretion entry with Human MoDCs is “significant amounts of activin-A after 6 hours of stimulation”.

Consider `Nc1ncnc2c1ncn2[C@@H]1O[C@H](COP(=O)(O)OP(=O)(O)OP(=O)(O)O)[C@@H](O)[C@H]1O` [ATP], for which the activin-A secretion entry in the series on Human MoDCs is on record as “neither of these stimulated activin-A release above the levels observed in unstimulated MoDC cultures”.

In the case of `CCCCC[C@H](O)/C=C/[C@H]1[C@H](O)CC(=O)[C@@H]1C/C=C\CCCC(=O)O` [PGE2], in the series with Human MoDCs, the activin-A secretion result is recorded as “neither of these stimulated activin-A release above the levels observed in unstimulated MoDC cultures”.

Take `NC(=O)c1ccc(-c2nc(-c3ccc4c(c3)OCO4)c(-c3ccccn3)[nH]2)cc1` [SB431542, reference compound]: the “activin-A suppression of IFN-γ production” value in the series on Human NK cells (added at a concentration of 10 for 30 minutes before activin-A) was “reversed”.

Consider `CCOCc1nc2c(N)nc3ccccc3c2n1CC(C)(C)O` [R848], for which, in the series with Human MoDCs, the activin-A secretion result is given as “significant amounts of activin-A after 6 hours of stimulation”.

As for “CD40L: trimeric CD40L used to stimulate MoDCs”, the “activin RIIA mRNA” value with MoDCs (after 2 hours) is on record as “upregulated”. Further, the “ALK-4 mRNA” value is recorded as “significantly higher than controls” in the series on MoDCs (after 24 hours of stimulation, vs controls) and “downregulated” in the series with MoDCs (early in the culture period). The “activin RIIB mRNA” value with MoDCs (over 2-24 hours) is “early down regulation, followed by increases over time”.

Take TGF-β: the “killing ability of NK cells” value in series [1] was “significantly suppressed”. The IFN-γ production result was “suppressing the production of IFN-γ” with Human NK cells (IL-2 and IL-12, 20 hours, 10, 50, 100 ng/ml); “inhibiting IFN-γ production” in the series on Human NK cells (IL-2 and IL-12, 24 hours, increasing concentrations). The NKp30 expression entry in the series with NK cells [2] is “substantial down regulation of the receptor”. In the series with NK cells [3], the “apoptosis (polycaspase, caspase 3/7, caspase 8, PI staining)” value was “no indication of apoptosis”.

Turning to Pam3Cys, the activin-A secretion entry in the series on Human MoDCs is “did not”.
